Test results as given in patent publication US12728111B2, “Electrophilic compounds and electrophilic prodrugs for treating aneurysm” (University of Pittsburgh—Of the Commonwealth System of …, priority 2020, dated 2026).

Tests used:
[1] = test system: leukocyte/macrophage infiltration in the vasculature; assay: FACS of single cells from mouse suprarenal aorta; assay type: in vivo; settings: mean±SEM
Excerpt: FIG. 2. […] (A) Quantification of gene expression levels in the mice suprarenal aorta region by real-time PCR (n=3 to 4). (B, C) Serum cytokines levels measured by ELISA (n=8 to 11). (D) FACS of single cells isolated from the mice suprarenal aorta region. Each sample is the pool of cells from three mice (n=3). (E, F) Quantification of the percentage of CD45+ leukocytes and CD64+, CD11c+M1-like macrophages in total cells from the FACS analysis. Ordinary one-way ANOVA followed by Tukey's test was performed for (A), (E) and (F). For ELISA in (B) and (C), to avoid the effect of the non-detected data point, a non-parametric Kruskal-Wallis test followed by Dunn's multiple comparisons was performed by adding zero to the missing data point. Data presented as mean±SEM. A p<0.05 for both the main test and post hoc test was considered statistically significant.
The suprarenal aorta region from euthanized mice were completely perfused with PBS containing 2% of heparin. Tissues were digested using a cocktail of 450 U/mL collagenase type I (#17100-017, Gibco), 125 U/mL collagenase type XI (#C7657, Sigma-Aldrich), 60 U/mL hyaluronidase type I-s (#H3606, Sigma-Aldrich) and 60 U/mL DNase-I (#10104159001, Roche) at 37° C. for 90 minutes. Single cells filtered through a 70 μm cell strainer were blocked by Fc block (#14-0161-85, eBioscience) for 5 minutes on ice. […] Data were analyzed using FlowJo v10.6.1.

oxLDL-treated BMDMs = assay: Cytokine ELISA in medium of oxLDL-treated BMDMs; assay type: cell-based, mouse; settings: 2.5 μM, 8 h oxLDL, vs control
Method: FIG. 3. NO2—OA prevents oxLDL-induced NFκB activation and pro-inflammatory cytokine production. Primary BMDMs were pretreated with vehicle, OA (2.5 μM) or NO2—OA (2.5 μM) for 1 h, followed by treatment of oxLDL (50 to 100 μg/ml) for the indicated times. (A, B) Nuclear (A) and cytoplasmic protein (B) fractions were isolated 1 h after oxLDL treatment and subjected to western blot with antibodies against p65, lamin a/c (nuclear marker) and GAPDH (cytosolic marker). Representative western blot images of three independent experiments are shown. (C) Quantification of the p65 nuclear to cytoplasmic ratio by image studio (normalized by the internal control, n=3). (D-F) Following 8 h of oxLDL treatment, levels of IL6, MCP1 and TNFα in the cell medium were measured by ELISA (n=4). (G) Real-time PCR quantification of gene expression levels of IL1b and Mmp9 in total mRNA extracted from the BMDMs. (C) Ordinary one-way ANOVA followed by Tukey's test was performed. As of (D-F), the basal level contains several non-detectable values, so ordinary one-way ANOVA followed by correction of FDR were performed for the oxLDL-treated groups only. Ordinary one-way ANOVA followed by Tukey's test was performed for (G). Data presented as mean±SEM. A p<0.05 for both the main test and post hoc test was considered statistically significant.
Murine RAW 264.7 cell line, 293T/17 cell line and Primary Umbilical Vein Endothelial Cells (PCS-100-010, HUVECs) were purchased from ATCC (Manassas, VA) and cultured in DMEM (Gibco) with 10% FBS (Thermo Fisher Scientific) or M199 (Gibco) supplemented with 20% FBS for HUVECs. BMDMs isolated from 12 to 16-week-old C57BL/6 wild type mice were cultured in bone marrow macrophage differentiation media. The differentiation medium was prepared by adding L-cell conditioned media (30%), non-essential amino acids (#11140-050, Gibco), sodium pyruvate (1 mM, #11360-070, Gibco), 2-Mercaptoethanol (55 μM) and 10% FBS into Iscove's Modified Dulbecco's Medium (IMDM, Gibco).

EP4 Gs-coupled receptor = target: T1, EP4 Gs-coupled receptor (Homo sapiens, UniProt P35408); assay: cAMP HTRF assay in 293T cells overexpressing EP4; assay type: cell-based; settings: read-out: best-fit IC50, reduction of PGE2-induced recruitment of cAMP
T1 construct: expressed in transfected cells; host or cells: 293T cells
T1 sequence (P35408 whole entry): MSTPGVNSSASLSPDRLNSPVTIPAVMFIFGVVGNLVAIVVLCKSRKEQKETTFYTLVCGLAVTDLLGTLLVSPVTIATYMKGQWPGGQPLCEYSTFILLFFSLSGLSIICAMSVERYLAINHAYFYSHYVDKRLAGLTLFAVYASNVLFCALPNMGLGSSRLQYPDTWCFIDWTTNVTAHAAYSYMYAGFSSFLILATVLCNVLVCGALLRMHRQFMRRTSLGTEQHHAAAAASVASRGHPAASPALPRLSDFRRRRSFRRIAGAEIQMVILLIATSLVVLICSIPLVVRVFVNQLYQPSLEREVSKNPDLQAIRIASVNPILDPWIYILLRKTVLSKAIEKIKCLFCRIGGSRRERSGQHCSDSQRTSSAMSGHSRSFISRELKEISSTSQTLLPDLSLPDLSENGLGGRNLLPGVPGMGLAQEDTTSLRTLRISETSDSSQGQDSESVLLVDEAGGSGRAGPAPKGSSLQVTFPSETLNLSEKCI
Method: FIG. 4. NO2—OA inhibits PGE2-dependent EP4 cAMP downstream signaling. (A) Three parameters nonlinear regression of EP4 global fitting dose-response curve. […] (B) HTRF assay of cAMP-Gs coupled receptor. […] (D) Representative figure of gelatin zymography indicating MMP 2/9 activity. BMDMs were incubated with L-902,688 (100 nM) plus vehicle, OA (2.5 μM) or NO2—OA (2.5 μM) for 12 h, and MMP 2&9 activity was measured by gelatin zymography. For (A) and (B), three or four parameters, global or separate fitting, constraints, and the significance of EC50 were determined in Prism. Data presented as mean±SEM. A p<0.05 was considered statistically significant.
Cells at 80% density were incubated on plates coated with transfection complex containing human EP4 receptors and a cAMP response element-regulated secreted alkaline phosphatase (SEAP) reporter. Activation of EP4 was quantified by adding a luminance-based alkaline phosphatase substrate and read in a chemiluminescence plate reader relative to the kit's standards. EP4 Inhibition assay was performed using cAMP-Gs HiRange kit (#62AM6PEB, Cisbio) following the manufacture's protocol and measured by Neo2 plate reader (BioTek, Winooski, Vt.). HTRF ratio (665/620) was converted to cAMP concentration using a cAMP standard.

With `CCCCCCCCC(=CCCCCCCCC(=O)O)[N+](=O)[O-]` [NO2—OA, 10-nitro-octadec-9-enoic acid] the “leucocytes (CD45+) in the vasculature, percentage of total cells” value [1] was 14.87±3.28%, the “pro-inflammatory M1 like macrophages (CD64+, CD11c+), percentage of total cells” value [1] was 3.27±0.42% and the “IL6 level in oxLDL-treated cell medium” value (oxLDL-treated BMDMs) was “significant decrease”. For the same compound, the “MCP1 level in oxLDL-treated cell medium” value (oxLDL-treated BMDMs) was “marginally significant reduction”, the “TNFα levels in oxLDL-treated cell medium” value (oxLDL-treated BMDMs) was “no significant difference” and the IC50 (EP4 Gs-coupled receptor) was 2800 nM.
